Assay results: patent publication US11780826B2 (Amgen Inc., priority 2017, dated 2023)

System: Bovine cardiac myofibrils
Test: In vitro model of dose-dependent myofibril ATPase modulation (AC1.4, pyruvate kinase/lactate dehydrogenase-coupled ATPase assay at pCa25)
Format: biochemical
Conditions: concentration at which ATPase activity was 1.4-fold higher than the bottom of the dose curve, mean of a minimum of two independent tests
Experimental: In vitro Model of Dose-Dependent Myofibril ATPase Modulation: Dose responses were measured using a calcium-buffered, pyruvate kinase and lactate dehydrogenase-coupled ATPase assay containing the following reagents (concentrations expressed are final assay concentrations): Potassium PIPES (12 mM), MgCl2 (2 mM), ATP (1 mM), DTT (1 mM), BSA (0.1 mg/mi), NADH (0.5 mM), PEP (1.5 mM), pyruvate kinase (4 U/ml), lactate dehydrogenase (8 U/ml), and antifoam (90 ppm). The pH was adjusted to 6.80 at 22° C. by addition of potassium hydroxide.
Bovine cardiac myofibrils were obtained by homogenizing the appropriate tissue in the presence of detergent. Such treatment removes membranes and majority of soluble cytoplasmic proteins but leaves intact cardiac sarcomeric acto-myosin apparatus. Concentrations of myofibrils were adjusted to achieve the necessary rate of ATP hydrolysis (typically 0.25-1.0 mg/ml).
Assays were performed by first preparing a dilution series of test chemical entity, each with an assay mixture containing potassium Pipes, MgCl2, BSA, DTT, pyruvate kinase, lactate dehydrogenase, myofibrils, antifoam, EGTA, CaCl2, and water. The assay was started by adding an equal volume of solution containing potassium Pipes, MgCl2, BSA, DTT, ATP, NADH, PEP, antifoam, and water. ATP hydrolysis was monitored by absorbance at 340 nm. The resulting dose response curve was fit by the 4 parameter equation y=Bottom+((Top−Bottom)/(1+((EC50/X)^Hill))). […] AC1.4 values reported in the table below are mean values based on a minimum of two independent tests.

| AC1.4 [µM] | Compound |
| --- | --- |
| 2.9075 | O=C(N[C@@H](c1ccc(C(F)(F)F)cc1F)C1CC1)[C@H]1CCCN1C(=O)c1cccc(C(O)C(F)(F)F)c1 (stereo partly drawn) [Example 556, (2R)-N-((R)-cyclopropyl(2-fluoro-4-(trifluoromethyl)phenyl)methyl)-1-(3-(2,2,2-trifluoro-1-hydroxyethyl)benzoyl)pyrrolidine-2-carboxamide] |
| 2.3635 | CC(C)c1cc(C(=O)N2[C@@H](C(=O)N[C@@H](c3cc(F)c(Cl)cc3F)C3COC3)C[C@H]3C[C@H]32)ccn1 [Example 504, (1R,3R,5R)-N-((R)-(4-chloro-2,5-difluorophenyl)(3-oxetanyl)methyl)-2-((2-(2-propanyl)-4-pyridinyl)carbonyl)-2-azabicyclo[3.1.0]hexane-3-carboxamide] |
| 2.583 | N#CC1CN(S(=O)(=O)N2CCC[C@H](C(=O)N3CCC[C@@H]3C(=O)NC(c3cc(F)ccc3F)C(F)F)C2)C1 (stereo partly drawn) [Example 524, (2R)-1-((S)-1-((3-cyanoazetidin-1-yl)sulfonyl)piperidine-3-carbonyl)-N-(1-(2,5-difluorophenyl)-2,2-difluoroethyl)pyrrolidine-2-carboxamide] |
| 0.2026 | CS(=O)(=O)c1ccc(C(=O)N2CCCC[C@@H]2C(=O)N[C@@H](c2cc(F)c(Cl)cc2F)C2CC2)cn1 [Example 125, (2R)-N-((R)-(4-chloro-2,5-difluorophenyl)(cyclopropyl)methyl)-1-((6-(methylsulfonyl)-3-pyridinyl)carbonyl)-2-piperidinecarboxamide] |
| 4.01 | CCC(NC(=O)[C@H]1CCCN1C(=O)[C@H]1CCCN(S(=O)(=O)N2CC(C#N)C2)C1)c1ccc(OC)cc1 (stereo partly drawn) [Example 625, (2R)-1-((S)-1-((3-cyanoazetidin-1-yl)sulfonyl)piperidine-3-carbonyl)-N-(1-(4-methoxyphenyl)propyl)pyrrolidine-2-carboxamide] |
| 1.528 | CS(=O)(=O)c1cc(C(=O)N2C[C@@H](F)C[C@@H]2C(=O)N[C@@H](c2cc(F)c(C(F)(F)F)cc2F)C2CC2)ccn1 [Example 416, (4S)-N-((R)-cyclopropyl(2,5-difluoro-4-(trifluoromethyl)phenyl)methyl)-4-fluoro-1-((2-(methylsulfonyl)-4-pyridinyl)carbonyl)-D-prolinamide] |
| 0.1638 | N#CC1CN(S(=O)(=O)c2cccc(C(=O)N3CCC[C@@H]3C(=O)N[C@@H](CO)c3ccc(Cl)c(F)c3)c2)C1 [Example 105, N-((1R)-1-(4-chloro-3-fluorophenyl)-2-hydroxyethyl)-1-(3-((3-cyano-1-azetidinyl)sulfonyl)benzoyl)-D-prolinamide] |
| 3.413 | COc1ccc(C(C)NC(=O)[C@H]2CCCN2C(=O)[C@H]2CCCN(S(=O)(=O)N3CC(C#N)C3)C2)cc1F (stereo partly drawn) [Example 585, 1-(((3S)-1-((3-cyano-1-azetidinyl)sulfonyl)-3-piperidinyl)carbonyl)-N-((1R)-1-(3-fluoro-4-methoxyphenyl)ethyl)-D-prolinamide,1-(((3S)-1-((3-cyano-1-azetidinyl)sulfonyl)-3-piperidinyl)carbonyl)-N-((1S)-1-(3-fluoro-4-methoxyphenyl)ethyl)-D-prolinamide] |
| 0.0287 | CCNc1ccc(C)cc1C(=O)N1[C@@H](C(=O)N[C@@H](c2ccc(C(F)(F)F)cc2F)C2COC2)C[C@H]2C[C@H]21 [Example 23, (1R,3R,5R)-2-(2-(ethylamino)-5-methylbenzoyl)-N-((R)-(2-fluoro-4-(trifluoromethyl)phenyl)(3-oxetanyl)methyl)-2-azabicyclo[3.1.0]hexane-3-carboxamide] |
| 0.1585 | N#CC1CN(S(=O)(=O)N2C[C@H]3C[C@@H]2[C@H](C(=O)N2CCC[C@@H]2C(=O)NCc2ccc(C(F)(F)F)cc2F)C3)C1 [Example 103, 1-(((1R,4R,6R)-2-((3-cyano-1-azetidinyl)sulfonyl)-2-azabicyclo[2.2.1]hept-6-yl)carbonyl)-N-(2-fluoro-4-(trifluoromethyl)benzyl)-D-prolinamide] |
| 6.057 | Cc1cccc(C(=O)N2CCC[C@@H]2C(=O)N[C@@H](c2ccc(C(F)(F)F)cc2F)C2CC2)c1 [Example 715, N-((R)-cyclopropyl(2-fluoro-4-(trifluoromethyl)phenyl)methyl)-1-(3-methylbenzoyl)-D-prolinamide] |
| 10 | CC(=O)N1CC(NS(=O)(=O)N2CCC[C@H](C(=O)N3CCC[C@@H]3C(=O)NCc3ccc(C(F)(F)F)cc3)C2)C1 [Example 806, 1-(((3S)-1-((l-acetyl-3-azetidinyl)sulfamoyl)-3-piperidinyl)carbonyl)-N-(4-(trifluoromethyl)benzyl)-D-prolinamide] |
| 5.334 | N#CC1CN(S(=O)(=O)c2cccc(C(=O)N3CCC[C@@H]3C(=O)NCCn3ccc(C(F)(F)F)n3)c2)C1 [Example 689, 1-((3-((3-cyano-1-azetidinyl)sulfonyl)phenyl)carbonyl)-N-(2-(3-(trifluoromethyl)-1H-pyrazol-1-yl)ethyl)-D-prolinamide] |
| 6.547 | O=C(N[C@@H](c1ccc(C(F)(F)F)cc1F)C1CC1)[C@H]1CCCN1C(=O)c1cccc(-c2ccsc2)c1 [Example 726, N-((R)-cyclopropyl(2-fluoro-4-(trifluoromethyl)phenyl)methyl)-1-(3-(3-thiophenyl)benzoyl)-D-prolinamide] |
| 7.696 | CS(=O)(=O)c1cc(C(=O)N2CCC[C@@H]2C(=O)NC(c2ccc(C(F)(F)F)cc2F)C2CC2)ccn1 (stereo partly drawn) [Example 761, (2R)-N-(cyclopropyl(2-fluoro-4-(trifluoromethyl)phenyl)methyl)-1-(2-(methylsulfonyl)isonicotinoyl)pyrrolidine-2-carboxamide] |
| 1.479 | CN(C)S(=O)(=O)c1cccc(C(=O)N2CCC[C@@H]2C(=O)N[C@H](c2ccc(Cl)c(F)c2)C2CC2)c1 [Example 408, N-((S)-(4-chloro-3-fluorophenyl)(cyclopropyl)methyl)-1-(3-(dimethylsulfamoyl)benzoyl)-D-prolinamide] |
| 0.3278 | Cc1ccc(CNC(=O)[C@H]2CCCN2C(=O)[C@H]2CCCN(S(=O)(=O)N3CC(C#N)C3)C2)c(F)c1 [Example 181, 1-(((3S)-1-((3-cyano-1-azetidinyl)sulfonyl)-3-piperidinyl)carbonyl)-N-(2-fluoro-4-methylbenzyl)-D-prolinamide] |
| 0.5692 | CS(=O)(=O)c1cncc(C(=O)N2CCC(C(F)(F)F)C2C(=O)N[C@@H](c2cc(F)c(C(F)(F)F)cc2F)C2CC2)c1 (stereo partly drawn) [Example 241, N-((R)-cyclopropyl(2,5-difluoro-4-(trifluoromethyl)phenyl)methyl)-1-(5-(methylsulfonyl)nicotinoyl)-3-(trifluoromethyl)pyrrolidine-2-carboxamide] |
| 7.0265 | CCCCCC1CN(S(=O)(=O)N2CCC[C@H](C(=O)N3CCC[C@@H]3C(=O)NCc3ccc(C(F)(F)F)cc3)C2)C1 [Example 735, 1-(((3S)-1-((3-pentyl-1-azetidinyl)sulfonyl)-3-piperidinyl)carbonyl)-N-(4-(trifluoromethyl)benzyl)-D-prolinamide] |
| 2.5985 | O=C(N[C@@H](c1ccc(C(F)(F)F)cc1F)C1COC1)[C@H]1C[C@H]2C[C@H]2N1C(=O)c1cncc(C(F)(F)F)c1 [Example 527, (1R,3R,5R)-N-((R)-(2-fluoro-4-(trifluoromethyl)phenyl)(3-oxetanyl)methyl)-2-((5-(trifluoromethyl)-3-pyridinyl)carbonyl)-2-azabicyclo[3.1.0]hexane-3-carboxamide] |
| 0.1085 | C[C@@H]1CCN(S(=O)(=O)N2CC(C#N)C2)C[C@H]1C(=O)N1CCC[C@@H]1C(=O)NCc1ccc(C(F)(F)F)cc1 [Example 82, 1-(((3S,4R)-1-((3-cyano-1-azetidinyl)sulfonyl)-4-methyl-3-piperidinyl)carbonyl)-N-(4-(trifluoromethyl)benzyl)-D-prolinamide] |
| 0.2624 | Cc1c(Cl)cccc1CNC(=O)[C@H]1CCCN1C(=O)[C@H]1CCCN(S(=O)(=O)N2CC(C#N)C2)C1 [Example 152, N-(3-chloro-2-methylbenzyl)-1-(((3S)-1-((3-cyano-1-azetidinyl)sulfonyl)-3-piperidinyl)carbonyl)-D-prolinamide] |
| 1.8655 | Cc1ccc(C(C)NC(=O)[C@H]2CCCN2C(=O)[C@H]2CCCN(S(=O)(=O)N3CC(C#N)C3)C2)cc1 (stereo partly drawn) [Example 452, (2R)-1-((S)-1-((3-cyanoazetidin-1-yl)sulfonyl)piperidine-3-carbonyl)-N-(1-(p-tolyl)ethyl)pyrrolidine-2-carboxamide] |
| 0.0531 | C[C@@H](NC(=O)[C@H]1CCCN1C(=O)[C@H]1CCCN(S(=O)(=O)N2CC(C#N)C2)C1)c1cc(F)c(Cl)cc1F [Example 48, N-((1R)-1-(4-chloro-2,5-difluorophenyl)ethyl)-1-(((3S)-1-((3-cyano-1-azetidinyl)sulfonyl)-3-piperidinyl)carbonyl)-D-prolinamide] |
| 0.582 | CCS(=O)(=O)c1cccc(C(=O)N2[C@@H](C(=O)N[C@@H](c3ccc(C(F)(F)F)cc3F)C3CC3)C[C@H]3C[C@H]32)c1 [Example 246, (1R,3R,5R)-N-((R)-cyclopropyl(2-fluoro-4-(trifluoromethyl)phenyl)methyl)-2-(3-(ethylsulfonyl)benzoyl)-2-azabicyclo[3.1.0]hexane-3-carboxamide] |
